Laboratory results taken from publication PMC11676671, “Simultaneous Down-Regulation of Dominant Cinnamoyl CoA Reductase and Cinnamyl Alcohol Dehydrogenase Dramatically Altered Lignin Content in Mulberry” (Plants, 2024).

Tested on: T1, MaCCR1
T1 construct: full-length CDS in pET-28a, His-tagged, expressed in E. coli BL21(DE3)
Test: absorbance decrease of substrate, microplate reader, non-linear fit
Format: biochemical, Morus alba
Description: absorbance decrease of substrate, microplate reader, non-linear fit on MaCCR1

Row | Compound | Km (pH and temperature of the kinetic assay not given) [µM] | Km (pH and temperature of the kinetic assay not printed (optimum pH 6.0, 20 °C with feruloyl CoA)) [µM]
1 | COc1cc(/C=C/C(=O)SCCNC(=O)CCNC(=O)[C@H](O)C(C)(C)COP(=O)(O)OP(=O)(O)OC[C@H]2O[C@@H](n3cnc4c(N)ncnc43)[C@H](O)[C@@H]2OP(=O)(O)O)cc(OC)c1O [sinapyl-CoA] | 160 | 
2 | COc1cc(/C=C/C(=O)SCCNC(=O)CCNC(=O)[C@H](O)C(C)(C)COP(=O)(O)OP(=O)(O)OC[C@H]2O[C@@H](n3cnc4c(N)ncnc43)[C@H](O)[C@@H]2OP(=O)(O)O)ccc1O [feruloyl CoA] |  | 62.6
